US8916551B2, “Heterocyclic compound and use thereof” (Takeda Pharmaceutical Company Limited, priority 2010, dated 2014)

These compounds were tested against T1, AMPA receptor (human GluR1 flip/stargazin expressed in CHO-K1 cells) (Homo sapiens, UniProt P42261) (assay: AMPA receptor function enhancing activity using calcium influx as index). Conditions: test compound 30 μM with 3 mM glutamic acid, change in fluorescence level in 3 min, 100% = 3 mM glutamic acid + 300 μM cyclothiazide, 0% = 3 mM glutamic acid only.
T1 construct: expressed in transfected cells; host or cells: CHO-K1
Assay type: cell-based
Summary of the method: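 CHO-K1 clone stably co-expressing human GluR1 flip and stargazin, loaded with Calcium 4 dye plus probenecid. Compound at 30 μM was added with glutamate (3 mM final) and fluorescence change followed over 3 min. Activity is expressed as % of the 3 mM glutamate plus 300 μM cyclothiazide response, with glutamate alone as 0%.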

T1 sequence (P42261 19-906 isoform P42261-2 limits assumed): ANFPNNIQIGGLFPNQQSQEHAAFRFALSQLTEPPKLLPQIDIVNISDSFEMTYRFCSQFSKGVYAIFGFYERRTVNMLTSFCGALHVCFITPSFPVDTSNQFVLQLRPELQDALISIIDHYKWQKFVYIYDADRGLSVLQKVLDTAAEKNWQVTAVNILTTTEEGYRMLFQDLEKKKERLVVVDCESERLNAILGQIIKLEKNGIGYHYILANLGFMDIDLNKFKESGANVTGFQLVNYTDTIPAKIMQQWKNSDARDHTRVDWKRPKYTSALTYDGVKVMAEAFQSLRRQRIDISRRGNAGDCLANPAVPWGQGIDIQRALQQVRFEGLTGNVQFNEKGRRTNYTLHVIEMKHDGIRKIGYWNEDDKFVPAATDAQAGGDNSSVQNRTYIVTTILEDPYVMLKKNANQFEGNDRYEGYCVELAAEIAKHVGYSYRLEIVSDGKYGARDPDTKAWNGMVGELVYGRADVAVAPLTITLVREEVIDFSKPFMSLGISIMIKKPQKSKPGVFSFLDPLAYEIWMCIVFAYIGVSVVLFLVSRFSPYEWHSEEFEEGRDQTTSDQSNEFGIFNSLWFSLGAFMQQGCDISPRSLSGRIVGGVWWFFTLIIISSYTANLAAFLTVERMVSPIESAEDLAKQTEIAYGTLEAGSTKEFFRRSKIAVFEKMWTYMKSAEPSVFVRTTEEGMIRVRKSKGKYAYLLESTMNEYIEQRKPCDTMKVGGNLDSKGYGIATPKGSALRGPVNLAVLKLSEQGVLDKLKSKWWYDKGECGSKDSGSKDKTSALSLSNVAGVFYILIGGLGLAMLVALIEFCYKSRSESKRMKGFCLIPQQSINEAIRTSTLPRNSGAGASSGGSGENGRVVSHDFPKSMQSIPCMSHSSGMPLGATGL
T1 sequence (Q9Y698 whole entry partner): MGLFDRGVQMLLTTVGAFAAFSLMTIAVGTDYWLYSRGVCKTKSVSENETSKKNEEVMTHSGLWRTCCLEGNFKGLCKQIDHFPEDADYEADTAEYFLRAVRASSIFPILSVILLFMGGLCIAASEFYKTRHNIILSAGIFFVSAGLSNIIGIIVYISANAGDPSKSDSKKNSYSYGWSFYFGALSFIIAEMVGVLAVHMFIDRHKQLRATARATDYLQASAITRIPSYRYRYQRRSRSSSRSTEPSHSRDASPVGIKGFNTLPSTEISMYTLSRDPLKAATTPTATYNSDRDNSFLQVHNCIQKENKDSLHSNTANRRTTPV

First: Cc1cc(F)ccc1Oc1ccc(C2CCCN3CCS(=O)(=O)N=C23)cc1 (stereo not shown) [Example 145, 9-[4-(4-fluoro-2-methylphenoxy)phenyl]-3,4,6,7,8,9-hexahydropyrido[2,1-c][1,2,4]thiadiazine 2,2-dioxide]
Second: O=S1(=O)CCN2CCCC(c3ccc(Oc4ccc(Cl)c(Cl)c4)cc3)C2=N1 (stereo not shown) [Example 152, 9-[4-(3,4-dichlorophenoxy)phenyl]-3,4,6,7,8,9-hexahydropyrido[2,1-c][1,2,4]thiadiazine 2,2-dioxide]
The “activity (%)” value of the first is higher: 84% for the first, 80% for the second.

Going from `O=S1(=O)CCN2CCC[C@@H](c3ccc(Oc4cccc(Cl)c4)cc3)C2=N1` [Example 203, (9S)-9-[4-(3-chlorophenoxy)phenyl]-3,4,6,7,8,9-hexahydropyrido[2,1-c][1,2,4]thiadiazine 2,2-dioxide] to `CC(F)(F)c1cccc(Oc2ccc(C3CCCN4CCS(=O)(=O)N=C34)cc2)c1` (stereo not shown) [Example 159, 9-{4-[3-(1,1-difluoroethyl)phenoxy]phenyl}-3,4,6,7,8,9-hexahydropyrido[2,1-c][1,2,4]thiadiazine 2,2-dioxide], the “activity (%)” value rises from 85% to 90%.

First: CC1=CN2CCS(=O)(=O)N=C2C(c2ccc(OC3CCCCC3)cc2)=N1 [Example 180, 9-[4-(cyclohexyloxy)phenyl]-7-methyl-3,4-dihydropyrazino[2,1-c][1,2,4]thiadiazine 2,2-dioxide]
Second: O=S1(=O)CCN2CCCC(c3ccc(OC4CCCCC4)cc3)C2=N1 (stereo not shown) [Example 261, 9-[4-(cyclohexyloxy)phenyl]-3,4,6,7,8,9-hexahydropyrido[2,1-c][1,2,4]thiadiazine 2,2-dioxide]
The “activity (%)” value of the first is lower: 70% for the first, 72% for the second.

`O=S1(=O)CCN2C=CC=C(c3ccc(Oc4ccnc(C(F)(F)F)c4)cc3)C2=N1` [Example 257, 9-(4-{[2-(trifluoromethyl)pyridin-4-yl]oxy}phenyl)-3,4-dihydropyrido[2,1-c][1,2,4]thiadiazine 2,2-dioxide] and `O=S1(=O)CCN2C=CC=C(c3ccc(Oc4cnccc4C(F)(F)F)cc3)C2=N1` [Example 255, 9-(4-{[4-(trifluoromethyl)pyridin-3-yl]oxy}phenyl)-3,4-dihydropyrido[2,1-c][1,2,4]thiadiazine 2,2-dioxide] are the same in “activity (%)” value: 84% for the first, 84% for the second.

Compared with `Cc1cccc(Oc2ccc(C3=CC=CN4CCS(=O)(=O)N=C34)cc2)n1` [Example 246, 9-{4-[(6-methylpyridin-2-yl)oxy]phenyl}-3,4-dihydropyrido[2,1-c][1,2,4]thiadiazine 2,2-dioxide], `O=S1(=O)CCN2C=CC=C(c3ccc(Oc4ccccc4C(F)(F)F)cc3)C2=N1` [Example 266, 9-{4-[2-(trifluoromethyl)phenoxy]phenyl}-3,4-dihydropyrido[2,1-c][1,2,4]thiadiazine 2,2-dioxide] is higher in “activity (%)” value: 73% for the first, 84% for the second.

With `O=S1(=O)CCN2CCCC(c3ccc(C(F)(F)c4ccccc4)cc3)C2=N1` (stereo not shown) [Example 163, 9-{4-[difluoro(phenyl)methyl]phenyl}-3,4,6,7,8,9-hexahydropyrido[2,1-c][1,2,4]thiadiazine 2,2-dioxide] the “activity (%)” value was 74%.

Same assay, conditions: test compound 30 μM with glutamic acid final 3 mM, change in fluorescence in 3 min, 100% = 3 mM glutamic acid + 300 μM cyclothiazide, 0% = 3 mM glutamic acid only

Compared with `Cc1ccc(Cc2ccc(C3CCCN4CCS(=O)(=O)N=C34)cc2)cc1` (stereo not shown) [Example 324, 9-[4-(4-methylbenzyl)phenyl]-3,4,6,7,8,9-hexahydropyrido[2,1-c][1,2,4]thiadiazine 2,2-dioxide], `O=S1(=O)CCN2CCCC(c3ccc(Oc4ccc(F)cc4)cc3)C2=N1` (stereo not shown) [Example 357, 9-[4-(4-fluorophenoxy)phenyl]-3,4,6,7,8,9-hexahydropyrido[2,1-c][1,2,4]thiadiazine 2,2-dioxide] is higher in “activity (%)” value: 63% for the first, 77% for the second.

First: O=S1(=O)CCN2C=CN=C(c3ccc(OC4CCCCC4)nc3)C2=N1 [Example 94, 9-[6-(cyclohexyloxy)pyridin-3-yl]-3,4-dihydropyrazino[2,1-c][1,2,4]thiadiazine 2,2-dioxide]
Second: CCCCOc1ccc(C2CCCN3CCS(=O)(=O)N=C23)cc1F (stereo not shown) [Example 352, 9-(4-butoxy-3-fluorophenyl)-3,4,6,7,8,9-hexahydropyrido[2,1-c][1,2,4]thiadiazine 2,2-dioxide]
The “activity (%)” value of the first is lower: 71% for the first, 76% for the second.

Compared with `O=S1(=O)CCN2CCNC(c3ccc(-c4ccccc4)c(F)c3)C2=N1` (stereo not shown) [Example 345, 9-(2-fluorobiphenyl-4-yl)-3,4,6,7,8,9-hexahydropyrazino[2,1-c][1,2,4]thiadiazine 2,2-dioxide], `O=S1(=O)CCN2CCCC(c3ccc(-c4ccccc4)c(F)c3)C2=N1` (stereo not shown) [Example 96, 9-(2-fluorobiphenyl-4-yl)-3,4,6,7,8,9-hexahydropyrido[2,1-c][1,2,4]thiadiazine 2,2-dioxide] is higher in “activity (%)” value: 63% for the first, 74% for the second.

First: Cc1ccc(C(C)(C)c2ccc(C3=CC=CN4CCS(=O)(=O)N=C34)cc2)cc1 [Example 329, 9-{4-[1-methyl-1-(4-methylphenyl)ethyl]phenyl}-3,4-dihydropyrido[2,1-c][1,2,4]thiadiazine 2,2-dioxide]
Second: CC(F)(F)c1ccc(Oc2ccc(C3=CC=CN4CCS(=O)(=O)N=C34)cc2)cc1 [Example 323, 9-{4-[4-(1,1-difluoroethyl)phenoxy]phenyl}-3,4-dihydropyrido[2,1-c][1,2,4]thiadiazine 2,2-dioxide]
The “activity (%)” value of the first is lower: 82% for the first, 85% for the second.

`COc1ccc2cc(C3CCCN4CCS(=O)(=O)N=C34)ccc2c1` (stereo not shown) [Example 128, 9-(6-methoxynaphthalen-2-yl)-3,4,6,7,8,9-hexahydropyrido[2,1-c][1,2,4]thiadiazine 2,2-dioxide] and `COc1cccc(-c2ccc(C3CCCN4CCS(=O)(=O)N=C34)cc2)c1` (stereo not shown) [Example 106, 9-(3′-methoxybiphenyl-4-yl)-3,4,6,7,8,9-hexahydropyrido[2,1-c][1,2,4]thiadiazine 2,2-dioxide] are the same in “activity (%)” value: 98% for the first, 98% for the second.

Compared with `CSc1ccc(C2=CC=CN3CCS(=O)(=O)N=C23)cc1` [Example 408, 9-[4-(methylsulfanyl)phenyl]-3,4-dihydropyrido[2,1-c][1,2,4]thiadiazine 2,2-dioxide], `O=S1(=O)CCN2C=CC=C(c3ccc(O)cc3)C2=N1` [Example 87, 4-(2,2-dioxido-3,4-dihydropyrido[2,1-c][1,2,4]thiadiazin-9-yl)phenol] is lower in “activity (%)” value: 85% for the first, 51% for the second.

Going from `CC(C)Oc1ccc(C2=CC=CN3CCS(=O)(=O)N=C23)cc1F` [Example 361, 9-[3-fluoro-4-(1-methylethoxy)phenyl]-3,4-dihydropyrido[2,1-c][1,2,4]thiadiazine 2,2-dioxide] to `CCC(CC)Oc1ccc(C2=CC=CN3CCS(=O)(=O)N=C23)cc1` [Example 72, 9-[4-(1-ethylpropoxy)phenyl]-3,4-dihydropyrido[2,1-c][1,2,4]thiadiazine 2,2-dioxide], the “activity (%)” value falls from 85% to 80%.

Compared with `O=S1(=O)CCN2CCCC(c3ccc(OCc4cccc(F)c4)cc3)C2=N1` (stereo not shown) [Example 83, 9-{4-[(3-fluorobenzyl)oxy]phenyl}-3,4,6,7,8,9-hexahydropyrido[2,1-c][1,2,4]thiadiazine 2,2-dioxide], `O=S1(=O)CCN2CCCC(c3ccc(Oc4ccc5c(c4)OCC5)cc3)C2=N1` (stereo not shown) [Example 141, 9-[4-(2,3-dihydro-1-benzofuran-6-yloxy)phenyl]-3,4,6,7,8,9-hexahydropyrido[2,1-c][1,2,4]thiadiazine 2,2-dioxide] is higher in “activity (%)” value: 57% for the first, 80% for the second.

Going from `CC(C)c1ccc(COC2=CC=CN3CCS(=O)(=O)N=C23)cc1` [Example 52, 9-{[4-(1-methylethyl)benzyl]oxy}-3,4-dihydropyrido[2,1-c][1,2,4]thiadiazine 2,2-dioxide] to `O=S1(=O)CCN2C=CC=C(c3ccc(C4(F)COC4)cc3)C2=N1` [Example 396, 9-[4-(3-fluorooxetan-3-yl)phenyl]-3,4-dihydropyrido[2,1-c][1,2,4]thiadiazine 2,2-dioxide], the “activity (%)” value rises from 67% to 82%.

Going from `O=S1(=O)CCN2CCCC(c3ccc4c(ccn4CCc4ccc(F)cc4)c3)C2=N1` (stereo not shown) [Example 295, 9-{1-[2-(4-fluorophenyl)ethyl]-1H-indol-5-yl}-3,4,6,7,8,9-hexahydropyrido[2,1-c][1,2,4]thiadiazine 2,2-dioxide] to `COc1ccc2cc(C3CCCN4CCS(=O)(=O)N=C34)ccc2c1` (stereo not shown) [Example 127, 9-(6-methoxynaphthalen-2-yl)-3,4,6,7,8,9-hexahydropyrido[2,1-c][1,2,4]thiadiazine 2,2-dioxide], the “activity (%)” value rises from 64% to 79%.

Going from `O=S1(=O)CCN2CCCC(c3ccc(-n4nc(C(F)(F)F)cc4C4CC4)cc3)C2=N1` (stereo not shown) [Example 301, 9-{4-[5-cyclopropyl-3-(trifluoromethyl)-1H-pyrazol-1-yl]phenyl}-3,4,6,7,8,9-hexahydropyrido[2,1-c][1,2,4]thiadiazine 2,2-dioxide] to `O=C(Nc1ccc(C2CC2)cc1)C1=CC=CN2CCS(=O)(=O)N=C12` [Example 4, N-(4-cyclopropylphenyl)-3,4-dihydropyrido[2,1-c][1,2,4]thiadiazine-9-carboxamide 2,2-dioxide], the “activity (%)” value rises from 76% to 85%.

In the case of `Cc1cc(C(F)(F)F)ccc1Oc1ccc(C2=CC=CN3CCS(=O)(=O)N=C23)cc1` [Example 121, 9-{4-[2-methyl-4-(trifluoromethyl)phenoxy]phenyl}-3,4-dihydropyrido[2,1-c][1,2,4]thiadiazine 2,2-dioxide], the “activity (%)” value is reported as 71%.
